# What was measured:
# [1] = system: cytokines IL-6, TNFα and IL-1β; assay: ICV Aβ42 infusion mouse model, cytokine fluorescence ELISA; type: in vivo; settings: ICV Aβ42-infused mice; 10 mg/kg C0105 i.p.
# From the text: FIG. 6 illustrates that Compound C0105 treatment of mice nearly abolishes Aβ42-induced cytokine production. […] Compound C0105 almost abolished the production of these 3 cytokines. n=7 or n=8.
# [2] = molecular target: FLNA association with TLR4 (Mus musculus, UniProt Q8BTM8); assay: ICV Aβ42 infusion mouse model, synaptosome co-immunoprecipitation; settings: 10 mg/kg C0105 i.p. twice daily, 2 weeks; prefrontal cortex and hippocampus
# α7nAChR-FLNA complex = molecular target: T1, α7nAChR-FLNA complex (Homo sapiens, UniProt P21333); assay: 96-well FITC-solid phase method in lymphocytes; type: cell-based; settings: 1 nM C0105, 30 min; AD lymphocytes or Aβ42-treated control lymphocytes
# T1 construct: To determine the levels of FLNA-α7nAChR, FLNA-TLR4 and α7nAChR-Aβ42 complexes in the lymphocytes; endogenous in cells; host or cells: lymphocytes from venous blood of AD patients and control subjects (ex vivo)
# T1 sequence (P21333 2-2647 limits assumed, one chain of several): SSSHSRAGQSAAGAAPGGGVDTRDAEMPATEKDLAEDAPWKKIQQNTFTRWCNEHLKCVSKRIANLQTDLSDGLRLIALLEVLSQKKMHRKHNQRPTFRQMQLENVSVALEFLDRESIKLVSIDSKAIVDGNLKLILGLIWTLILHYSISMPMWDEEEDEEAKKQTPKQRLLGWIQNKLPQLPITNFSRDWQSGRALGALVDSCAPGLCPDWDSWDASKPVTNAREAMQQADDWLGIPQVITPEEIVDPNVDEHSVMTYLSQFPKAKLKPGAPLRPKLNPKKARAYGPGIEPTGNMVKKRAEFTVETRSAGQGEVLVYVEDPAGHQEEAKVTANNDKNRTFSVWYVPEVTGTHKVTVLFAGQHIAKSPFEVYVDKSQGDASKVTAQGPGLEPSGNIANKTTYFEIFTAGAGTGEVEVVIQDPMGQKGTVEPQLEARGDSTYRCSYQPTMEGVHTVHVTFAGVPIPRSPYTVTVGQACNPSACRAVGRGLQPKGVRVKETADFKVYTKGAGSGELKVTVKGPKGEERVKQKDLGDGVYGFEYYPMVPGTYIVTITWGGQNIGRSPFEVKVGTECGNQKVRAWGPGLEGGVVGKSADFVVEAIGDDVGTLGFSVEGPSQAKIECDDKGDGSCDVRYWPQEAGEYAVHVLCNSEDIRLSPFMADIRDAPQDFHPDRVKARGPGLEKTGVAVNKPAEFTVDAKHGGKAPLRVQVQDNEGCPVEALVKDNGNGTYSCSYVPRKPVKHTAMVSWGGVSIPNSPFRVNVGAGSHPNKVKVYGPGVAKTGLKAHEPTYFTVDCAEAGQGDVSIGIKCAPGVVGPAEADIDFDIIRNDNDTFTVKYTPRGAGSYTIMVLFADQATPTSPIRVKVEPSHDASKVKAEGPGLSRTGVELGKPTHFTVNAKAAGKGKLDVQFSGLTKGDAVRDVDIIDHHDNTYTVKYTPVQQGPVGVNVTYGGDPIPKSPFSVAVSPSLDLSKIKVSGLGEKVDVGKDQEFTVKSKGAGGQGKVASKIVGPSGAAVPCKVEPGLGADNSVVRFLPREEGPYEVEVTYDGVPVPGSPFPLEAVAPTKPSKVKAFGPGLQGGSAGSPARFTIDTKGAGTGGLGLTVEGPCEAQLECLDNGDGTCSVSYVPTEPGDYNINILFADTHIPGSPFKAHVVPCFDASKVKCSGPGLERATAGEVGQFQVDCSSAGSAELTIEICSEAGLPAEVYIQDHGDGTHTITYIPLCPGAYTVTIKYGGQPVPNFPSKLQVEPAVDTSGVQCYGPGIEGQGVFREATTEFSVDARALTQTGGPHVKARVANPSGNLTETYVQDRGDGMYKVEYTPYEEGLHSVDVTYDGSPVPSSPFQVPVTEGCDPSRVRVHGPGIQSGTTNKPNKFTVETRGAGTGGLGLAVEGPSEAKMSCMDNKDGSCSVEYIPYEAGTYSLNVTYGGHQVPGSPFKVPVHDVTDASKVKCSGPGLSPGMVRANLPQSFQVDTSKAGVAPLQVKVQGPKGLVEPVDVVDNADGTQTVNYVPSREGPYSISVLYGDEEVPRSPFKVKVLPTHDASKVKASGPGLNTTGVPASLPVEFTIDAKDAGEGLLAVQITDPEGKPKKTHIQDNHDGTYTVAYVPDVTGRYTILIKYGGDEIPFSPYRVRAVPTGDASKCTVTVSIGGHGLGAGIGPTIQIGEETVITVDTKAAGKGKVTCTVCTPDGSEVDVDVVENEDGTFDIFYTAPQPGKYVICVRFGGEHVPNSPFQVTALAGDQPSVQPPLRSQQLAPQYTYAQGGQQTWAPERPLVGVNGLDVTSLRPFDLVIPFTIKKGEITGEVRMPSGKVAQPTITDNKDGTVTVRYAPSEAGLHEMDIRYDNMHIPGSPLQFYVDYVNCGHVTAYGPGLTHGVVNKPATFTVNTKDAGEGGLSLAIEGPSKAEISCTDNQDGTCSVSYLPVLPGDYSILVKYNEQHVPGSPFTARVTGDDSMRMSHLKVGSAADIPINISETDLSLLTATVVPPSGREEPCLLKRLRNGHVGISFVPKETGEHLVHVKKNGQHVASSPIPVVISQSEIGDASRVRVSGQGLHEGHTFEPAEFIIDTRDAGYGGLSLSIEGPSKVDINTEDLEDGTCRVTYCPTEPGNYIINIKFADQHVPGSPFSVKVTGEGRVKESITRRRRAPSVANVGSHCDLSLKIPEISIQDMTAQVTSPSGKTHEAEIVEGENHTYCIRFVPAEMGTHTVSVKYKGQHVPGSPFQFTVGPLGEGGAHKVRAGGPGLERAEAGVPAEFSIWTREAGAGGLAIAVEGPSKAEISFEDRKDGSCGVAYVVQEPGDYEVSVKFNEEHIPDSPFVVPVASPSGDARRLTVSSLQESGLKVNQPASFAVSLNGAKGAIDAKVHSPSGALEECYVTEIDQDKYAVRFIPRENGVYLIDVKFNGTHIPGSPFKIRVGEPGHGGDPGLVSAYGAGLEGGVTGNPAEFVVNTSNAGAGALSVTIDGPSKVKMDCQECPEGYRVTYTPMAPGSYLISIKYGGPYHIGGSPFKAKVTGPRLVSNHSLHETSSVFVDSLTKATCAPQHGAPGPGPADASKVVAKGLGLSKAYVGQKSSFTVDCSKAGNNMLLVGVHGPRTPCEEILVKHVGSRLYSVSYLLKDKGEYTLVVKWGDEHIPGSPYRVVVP
# From the text: (§1) FIG. 2 illustrates the utility of a 96-well FITC-solid phase assay method to assess, in lymphocytes from AD patients and control subjects, levels of 1) the FLNA-α7nAChR association 2) the FLNA-TLR4 association and 3) α7nAChR-Aβ42 complexes. The top two panels show α7nAChR and TLR4 levels detected using respective FITC-anti-α7nAChR or FITC-anti-TLR4 antibodies after capturing FLNA coupled to α7nAChR and TLR4, respectively, with an anti-FLNA antibody coated on the microtiter solid phase plate.
# (§2) To prepare lymphocytes, 7 ml of venous blood was collected into an EDTA-containing collecting tube or S-monovette (Sarstedt). Collected blood (6 ml) was layered onto 6 ml of Histopaque®-1077 (Sigma) at 25° C., and the anticoagulated blood was centrifuged at 400×g for 30 minutes (25° C.) to yield plasma (top layer) and lymphocytes (opaque interface). The lymphocytes were washed twice by mixing with 6 ml of oxygenated K-R followed by centrifugation at 250×g for 10 minutes and resuspension. […]
# (§3) After two 1-minute washes with 50 mM Tris HCl (pH 7.4), each well was incubated in 0.5 μg/well FITC-conjugated anti-mouse IgG (human and mouse absorbed) for 1 hour at 25° C. Plates were washed twice with 200 μl ice-cold Tris HCl, pH 7.4 and the residual FITC-Aβ42 signals were determined by multimode plate reader, DTX880 (Beckman).
# TLR4-FLNA complex [3] = molecular target: T2, TLR4-FLNA complex (Homo sapiens, UniProt P21333); assay: 96-well FITC-solid phase method in lymphocytes; type: cell-based; settings: 1 nM C0105, 30 min; AD lymphocytes or Aβ42-treated control lymphocytes
# T2 construct: To determine the levels of FLNA-α7nAChR, FLNA-TLR4 and α7nAChR-Aβ42 complexes in the lymphocytes; endogenous in cells; host or cells: lymphocytes from venous blood of AD patients and control subjects (ex vivo)
# T2 sequence (P21333 2-2647 limits assumed, one chain of several): as above
# From the text: as §1, §2, §3
# TLR4-FLNA complex [4] = molecular target: T2, TLR4-FLNA complex; assay: Lymphocyte co-immunoprecipitation / Western blot; type: cell-based
# Experimental: To prepare lymphocytes, 7 ml of venous blood was collected into an EDTA-containing collecting tube or S-monovette (Sarstedt, Newton, N.C.). Collected blood (6 ml) was layered onto 6 ml HISTOPAQUE-1077 (Sigma, St Louis, Mo.) at 25° C. and the entire anti-coagulated blood was centrifuged at 400×g for 30 minutes (25° C.) to yield plasma (top layer) and lymphocytes (opaque interface). The lymphocytes were washed twice by mixing with 6 ml oxygenated Kreb's-Ringer followed by centrifugation at 250×g for 10 minutes and re-suspension. The final pellet was resuspended in 250 μl oxygenated Kreb's-Ringer prior to protein content determination by the Bradford method and assessment of the levels of FLNA-α7nAChR, FLNA-TLR4 and α7nAChR-Aβ42 complexes. To store lymphocytes, the lymphocyte pellet was resuspended in 250 μl ice-cold oxygenated Kreb's-Ringer containing 10% glycerol, and stored at −20° C. for 1 hour before storage at −80° C.
# To determine the levels of FLNA-α7nAChR, FLNA-TLR4 and α7nAChR-Aβ42 complexes in the lymphocytes, lymphocytes (50 μg) from control subjects were incubated for 30 minutes at 37° C. in 0.25 ml Kreb's-Ringer without or with 100 nM Aβ 42, and lymphocytes (50 μg) from AD subjects were incubated for 30 minutes at 37° C. in 0.25 ml Kreb's-Ringer. Lymphocytes from control and AD subjects were also simultaneously incubated with or without Compound C0105 (1 nM). […] In the case that frozen lymphocyte samples were used, a lymphocyte suspension was gradually thawed by storing at −20° C. for 1 hour after removal from −80° C. and then at thawed at 4° C.
# The incubation was terminated by adding 1 ml ice-cold Ca^2+-free Kreb's-Ringer containing 0.5 mM EGTA/0.1 mM EDTA, protease and phosphatase inhibitors followed by centrifugation. The resultant lymphocyte pellet was homogenized in 0.25 ml ice-cold immunoprecipitation buffer. […]
# The results are shown in FIG. 1A and quantified in FIG. 1C. […]
compound,measurement,setting,value
CN1CCC2(CC1)NCC(=O)N2Cc1ccccc1 [Compound C0105],Effect on Aβ42-induced IL-6 production (in words),[1],completely abolished
same,Suppression of IL-1β level,[1],80%
same,Suppression of TNF-α level,[1],86%
same,Effect on Aβ42-induced FLNA association with TLR4 (in words),[2],reduced Aβ42-induced increases in FLNA associations
same,Effect on FLNA-α7nAChR association (in words),α7nAChR-FLNA complex,reduce all three associations
same,Effect on FLNA-TLR4 association (in words),TLR4-FLNA complex [3],reduce all three associations
same,inhibition at 0.001 µM,"TLR4-FLNA complex [4]; 1 nM C0105, 30 min, lymphocytes of 20 AD subjects, read-out: Reduction of TLR4/FLNA complex level (% inhibition)",~50%
same,"Effect on amount of TLR4-FLNA complexes (in words), pilot study","TLR4-FLNA complex [4]; 1 nM C0105, Aβ42-treated control and untreated AD lymphocytes",decreases the amount of TLR4-FLNA complexes
same,Effect on TLR4/FLNA complex level (in words),"TLR4-FLNA complex [4]; 1 nM C0105, lymphocytes of 10 YCI controls",no discernible effect
